According to ChEMBL document CHEMBL5126532, “Synthetic approaches and structural diversity of triazolylbutanols derived from voriconazole in the antifungal drug development” (Eur J Med Chem, 2022):
Converted amounts (≈) assume the structure as drawn. Values belong to the molecule of their own block, whether it stands above or below them.

Columns and labels:
Format in all cases: functional
[1] = test system: Candida albicans; assay: Antifungal activity against Candida albicans
[2] = test system: Candida albicans; assay: Antifungal activity against Candida albicans TIMM1756 assessed as inhibition of fungal growth incubated for 20 hrs
[3] = test system: Candida albicans; assay: Antifungal activity against Candida albicans TIMM1850 assessed as inhibition of fungal growth incubated for 20 hrs
[4] = test system: Cryptococcus neoformans; assay: Antifungal activity against Cryptococcus neoformans TIMM1740 assessed as inhibition of fungal growth incubated for 68 hrs
[5] = test system: Cryptococcus neoformans; assay: Antifungal activity against Cryptococcus neoformans TIMM1855 assessed as inhibition of fungal growth incubated for 68 hrs
[6] = test system: Aspergillus fumigatus; assay: Antifungal activity against Aspergillus fumigatus TIMM1728 assessed as inhibition of fungal growth incubated for 20 hrs
[7] = test system: Aspergillus fumigatus; assay: Antifungal activity against Aspergillus fumigatus IFO6344 assessed as inhibition of fungal growth incubated for 20 hrs
[8] = test system: Candida albicans; assay: In vivo antifungal activity against Candida albicans infected in CDF1 mouse treated po 4 hrs after injection twice daily for 2 days measured on day 10; settings: 48 h, time 2 day
[9] = test system: Aspergillus fumigatus; assay: In vivo antifungal activity against Aspergillus fumigatus infected in CDF1 mouse treated po 4 hrs after injection twice daily for 2 days measured on day 10; settings: 48 h, time 2 day
[10] = test system: Aspergillus fumigatus; assay: Antifungal activity against Aspergillus fumigatus
[11] = test system: Candida parapsilosis; assay: Antifungal activity against Candida parapsilosis; settings: Lodderomyces parapsilosis
[12] = test system: Candida albicans; assay: Antifungal activity against Candida albicans SANK 51486 by 96-well microplate method
[13] = test system: Cryptococcus neoformans; assay: Antifungal activity against Cryptococcus neoformans TIMM 1855 by 96-well microplate method
[14] = test system: Aspergillus fumigatus; assay: Antifungal activity against Aspergillus fumigatus SANK 10569 by 96-well microplate method
[15] = test system: Aspergillus flavus; assay: Antifungal activity against Aspergillus flavus SANK 18497 by 96-well microplate method
[16] = test system: Candida albicans; assay: Antifungal activity against Candida albicans assessed as inhibition of fungal growth incubated for 20 hrs
[17] = test system: Cryptococcus neoformans; assay: Antifungal activity against Cryptococcus neoformans
[18] = test system: Candida; assay: Antifungal activity against Candida spp.
[19] = test system: Aspergillus sp.; assay: Antifungal activity against Aspergillus sp

Structure (SMILES): C[C@@H](N1CCN(c2ccc(-n3ccnn3)cc2)C1=O)[C@](O)(Cn1cncn1)c1ccc(F)cc1F
- MIC [2]: ≤ 0.001 µg/mL
- MIC [3]: ≤ 0.001 µg/mL
- MIC [4]: 0.016 µg/mL (≈ 0.0333 µM)
- MIC [5]: 0.016 µg/mL (≈ 0.0333 µM)
- MIC [6]: 0.25 µg/mL (≈ 0.52 µM)
- MIC [7]: 0.25 µg/mL (≈ 0.52 µM)
- ED50 [8]: 0.18 mg/kg
- ED50 [9]: 4 mg/kg

Structure (SMILES): C[C@@H](N1CCN(c2ccc(-n3cnn(Cc4ccc(OC(F)(F)F)cc4)c3=O)cc2)CC1)[C@](O)(Cn1cncn1)c1ccc(F)cc1F
- MIC [10]: 32 µg/mL (≈ 47.7 µM)

Structure (SMILES): CC(C)n1ncn(-c2ccc(N3CCN([C@H](C)[C@](O)(Cn4cncn4)c4ccc(F)cc4F)CC3)nc2)c1=O
- MIC [11]: 0.25 µg/mL (≈ 0.463 µM)

Structure (SMILES): C[C@@H](N1CCN(c2ccc(-n3cnn(Cc4cccc(C(F)(F)F)c4)c3=O)nc2)CC1)[C@](O)(Cn1cncn1)c1ccc(F)cc1F
- MIC [11]: 4 µg/mL (≈ 6.1 µM)

Structure (SMILES): C[C@@H](S[C@H]1CO[C@H](/C=C/C=C/c2ccc(C#N)cc2F)OC1)[C@](O)(Cn1cncn1)c1c(F)cccc1F
- MIC [12]: ≤ 0.008 µg/mL
- MIC [13]: ≤ 0.008 µg/mL
- MIC [14]: ≤ 0.008 µg/mL
- MIC [15]: ≤ 0.008 µg/mL

Structure (SMILES): C[C@@H](N1CCN(c2ccc(-n3cnn(Cc4cc(C(F)(F)F)cc(C(F)(F)F)c4C(F)(F)F)c3=O)cn2)CC1)[C@](O)(Cn1cncn1)c1ccc(F)cc1F
- MIC [11]: 4 µg/mL (≈ 5.05 µM)

Structure (SMILES): CCC(=O)OC[n+]1cnn(C[C@](O)(c2ccc(F)cc2F)[C@@H](C)N2CCN(c3ccc(-n4cnnn4)cc3)C2=O)c1.[I-]
- MIC [16]: 0.016 µg/mL

Structure (SMILES): CC(=O)NCCOC(=O)OC[n+]1cnn(C[C@](O)(c2ccc(F)cc2F)[C@@H](C)N2CCN(c3ccc(-n4cnnn4)cc3)C2=O)c1.[I-]
- MIC [16]: 0.016 µg/mL

Structure (SMILES): C[C@@H](N1CCN(c2ccc(-n3cnn(Cc4ccc(OC(F)(F)F)cc4)c3=O)cn2)CC1)[C@](O)(Cn1cncn1)c1ccc(F)cc1F
- MIC [11]: 4 µg/mL (≈ 5.96 µM)

Structure (SMILES): C[C@@H](S[C@H]1CO[C@H](/C=C/C=C/c2ccc(C#N)cc2)OC1)[C@](O)(Cn1cncn1)c1ccc(F)cc1F
- MIC [12]: ≤ 0.008 µg/mL
- MIC [13]: ≤ 0.008 µg/mL
- MIC [14]: ≤ 0.008 µg/mL
- MIC [15]: ≤ 0.008 µg/mL

Structure (SMILES): C[C@@H](N1CCN(c2ccc(-n3cncn3)cc2)C1=O)[C@](O)(Cn1cncn1)c1ccc(F)cc1F
- MIC [2]: ≤ 0.001 µg/mL
- MIC [3]: ≤ 0.001 µg/mL
- MIC [4]: 0.016 µg/mL (≈ 0.0333 µM)
- MIC [5]: 0.016 µg/mL (≈ 0.0333 µM)
- MIC [6]: 0.25 µg/mL (≈ 0.52 µM)
- MIC [7]: 0.25 µg/mL (≈ 0.52 µM)
- ED50 [8]: 0.18 mg/kg
- ED50 [9]: 4.4 mg/kg

Structure (SMILES): C[C@@H](N1CCN(c2ccc(-n3cnn(Cc4ccc(OC(F)(F)F)cc4)c3=O)nc2)CC1)[C@](O)(Cn1cncn1)c1ccc(F)cc1F
- MIC [11]: 4 µg/mL (≈ 5.96 µM)

Structure (SMILES): C[C@@H](S[C@H]1CO[C@H](/C=C/C=C/c2ccc(C#N)cc2F)OC1)[C@](O)(Cn1cncn1)c1cccc(F)c1F
- MIC [12]: ≤ 0.008 µg/mL
- MIC [13]: ≤ 0.008 µg/mL
- MIC [14]: ≤ 0.008 µg/mL
- MIC [15]: ≤ 0.008 µg/mL

Structure (SMILES): C[C@@H](N1C(=O)N(c2ccc(-n3cnnn3)cc2)CC1O)[C@](O)(Cn1cncn1)c1ccc(F)cc1F (stereo in doubt; 140a)
- MIC ([17]; Cryptococcus neoformans, read-out: MIC): 8 µg/mL (≈ 16.1 µM)
- MIC [18]: ≥ 0.25 µg/mL
- MIC ([19]; Aspergillus sp., read-out: MIC): 32 µg/mL (≈ 64.3 µM)

Structure (SMILES): C[C@@H](N1C(=O)N(c2ccc(-n3cnnn3)cc2)CC1O)[C@](O)(Cn1cncn1)c1ccc(F)cc1F (stereo in doubt; 140b)
- MIC [17]: 8 µg/mL (≈ 16.1 µM)
- MIC [19]: 32 µg/mL (≈ 64.3 µM)

Now from value to molecule:

- MIC80 [1]: 0.0313 µg/mL (≈ 0.0654 µM)
Structure (SMILES): C[C@@H](OCc1cc(-c2ccc(F)cc2Cl)no1)[C@](O)(Cn1cncn1)c1ccc(F)cc1F

- MIC80 [1]: 0.0313 µg/mL (≈ 0.0693 µM)
Structure (SMILES): C[C@@H](OCc1cc(-c2ccc(C#N)cc2)no1)[C@](O)(Cn1cncn1)c1ccc(F)cc1F

- MIC80 [1]: 0.0313 µg/mL (≈ 0.0711 µM)
Structure (SMILES): Cc1ccc(-c2cc(CO[C@H](C)[C@](O)(Cn3cncn3)c3ccc(F)cc3F)on2)cc1

- MIC80 [1]: 0.0313 µg/mL (≈ 0.0654 µM)
Structure (SMILES): C[C@@H](OCc1cc(-c2ccc(Cl)cc2F)no1)[C@](O)(Cn1cncn1)c1ccc(F)cc1F

- MIC80 [1]: 0.0313 µg/mL (≈ 0.0679 µM)
Structure (SMILES): C[C@@H](OCc1cc(-c2cccc(Cl)c2)no1)[C@](O)(Cn1cncn1)c1ccc(F)cc1F

- MIC [11]: 4 µg/mL (≈ 6.1 µM)
Structure (SMILES): C[C@@H](N1CCN(c2ccc(-n3cnn(Cc4ccc(C(F)(F)F)cc4)c3=O)cn2)CC1)[C@](O)(Cn1cncn1)c1ccc(F)cc1F

- MIC80 [1]: 0.0313 µg/mL (≈ 0.0711 µM)
Structure (SMILES): Cc1ccccc1-c1cc(CO[C@H](C)[C@](O)(Cn2cncn2)c2ccc(F)cc2F)on1

- MIC80 [1]: 0.0313 µg/mL (≈ 0.0633 µM)
Structure (SMILES): C[C@@H](OCc1cc(-c2ccc(C(F)(F)F)cc2)no1)[C@](O)(Cn1cncn1)c1ccc(F)cc1F

- MIC80 [1]: 0.0313 µg/mL (≈ 0.0606 µM)
Structure (SMILES): C[C@@H](OCc1cc(-c2c(F)c(F)c(F)c(F)c2F)no1)[C@](O)(Cn1cncn1)c1ccc(F)cc1F

- MIC80 [1]: 0.0313 µg/mL (≈ 0.0704 µM)
Structure (SMILES): C[C@@H](OCc1cc(-c2cccc(F)c2)no1)[C@](O)(Cn1cncn1)c1ccc(F)cc1F

- MIC80 [1]: 0.0313 µg/mL (≈ 0.0654 µM)
Structure (SMILES): C[C@@H](OCc1cc(-c2ccc(F)c(Cl)c2)no1)[C@](O)(Cn1cncn1)c1ccc(F)cc1F

- MIC80 [1]: 0.0313 µg/mL (≈ 0.0704 µM)
Structure (SMILES): C[C@@H](OCc1cc(-c2ccccc2F)no1)[C@](O)(Cn1cncn1)c1ccc(F)cc1F

- MIC [11]: 4 µg/mL (≈ 6.1 µM)
Structure (SMILES): C[C@@H](N1CCN(c2ccc(-n3cnn(Cc4ccc(C(F)(F)F)cc4)c3=O)nc2)CC1)[C@](O)(Cn1cncn1)c1ccc(F)cc1F

- MIC80 [1]: 0.0313 µg/mL (≈ 0.0734 µM)
Structure (SMILES): C[C@@H](OCc1cc(-c2ccccc2)no1)[C@](O)(Cn1cncn1)c1ccc(F)cc1F
